The source of these data is PMC9400670, “Establishing the selective phospholipid membrane coordination, permeation and lysis properties for a series of ‘druggable’ supramolecular self-associating antimicrobial amphiphiles” (Chemical Science, 2022).

The structures appear in SMILES notation. Like-named read-outs stand apart in the source and are kept apart here.

Data set [1] relates to MRSA USA300. To be noted: n = 3, 0.5 McFarland standard, after 900 min, number in bracket = efficacy rank; cited from earlier work.
Data set [2] is described as follows: Satellite terminal tissue sampling after i.v. dosing. The format is in vivo. To be noted: n = 3 mice; for concentration at 0.5 h / concentration at 4 h: CD-1, mouse, iv, 1 mg kg^−1; for concentration at 0.5 h: 0.5 h post i.v. dosing. The protocol: Finally, to gain an understanding of the propensity for SSAs 3 and 5 to diffuse from the mouse circulatory system into the mouse tissues, satellite terminal tissue sampling was also performed.

On the set-up of data set [3]: method as in PMID 29568426. The conditions noted are these: surface tension; 19 : 1 H2O : EtOH solution at 298 K; unit printed only in Figs S37-S40; cited from earlier work.
The subject of data set [4] is PC, PG and PE : PG mixed nanodiscs. Briefly: Phospholipid nanodisc 1H NMR CPMG coordination assay, comparison across the three nanodiscs. In kind it is binding. The conditions noted are these: SSA 0.10 mM, in words. The source says: Finally, to establish how any single SSA structural variation affects the coordination of an individual salt component to the surface of a phospholipid membrane, the binding of the anionic and cationic components of SSAs 5–12 with nanodiscs comprised of PC, PG or the PE : PG mix (Table 2) was studied. Nanodiscs were synthesised from synthetic vesicles of the relevant phospholipid composition. For full synthetic procedures and nanodisc characterisation please see ESI (Section 13). ^†[34,35]
Styrene-maleic acid (SMA) nanodiscs are small biomimetic scaffolds with a hydrodynamic diameter ≈ 10 nm. […]
Fluorescence polarisation: Lipid films were resuspended in Buffer (150 mM KCl, 10 mM HEPES, pH 7.4, 2 mM EGTA) and subjected to 9 freeze-thaw cycles in liquid nitrogen and extruded 20 times through a 200 nm polycarbonate membrane. […]
Nanodisc preparation: Lipid films were resuspended in Buffer (20 mM NaCl, 20 mM NaH 2PO4, pH 7.4) and sonicated for 1 hour, at a 5:1 ratio, SMA was added and incubated at 37 °C for 1 hour. Dialysed overnight in 5 L of the same buffer in 10 KDa cut-off dialysis tubing, concentrated, and underwent gel filtration size exclusion chromatography on a Superdex 200 10/300 GL column (GE Healthcare) in the same buffer, whilst monitoring absorbance at 260 nm. Nanodisc quantification carried out via monitoring of absorbance at 260 nm using a calibration curve.2 […]

Data set [5] is described as follows: Critical micelle concentration from surface tension measurements (pendant drop). In kind it is physicochemical. The conditions noted are these: 19 : 1 H2O : EtOH solution at 298 K. An excerpt: Section 2: General Methods
General remarks: A positive pressure of nitrogen and oven dried glassware were used for all reactions.
All solvents and starting materials were purchased from known chemical suppliers or available stores and used without any further purification unless specifically stipulated. The NMR spectra were obtained using a Burker AV2 400 MHz, AVNEO 400 MHz or Avance III […] spectrometer. The data was processed using ACD Labs or MestreNova software. NMR Chemical shift values are reported in parts per million (ppm) and calibrated to the centre of the residual solvent peak set (s = singlet, br = broad, d = doublet, t = triplet, q = quartet, m = multiplet). Fluorescence and fluorescence polarisation measurements were conducted using a Clariostar plate reader and analysed using MARS data analysis […]
Tensiometry Studies: All the samples were prepared in an EtOH:H2O (1:19) solution. All samples underwent an annealing process in which the various solutions were heated to approximately 40 °C before being allowed to cool to room temperature, allowing each sample to reach a thermodynamic minimum. All samples were prepared through serial dilution of the most concentrated sample. Three surface tension measurements were obtained for each sample at a given concentration, using the […]
pendant drop method. […]
Data

Where [6] appears, read: liver, read-out: Concentration of SSA in liver.
Setting [7] is: liver, 4.0 h post i.v. dosing, read-out: Concentration of SSA in liver.
The mark [8] stands for this setting: lung, read-out: Concentration of SSA in lung.
Setting [9] is: muscle, read-out: Concentration of SSA in muscle.

For `O=C(NCS(=O)(=O)O)Nc1ccc(C(F)(F)F)cc1` [SSA 1], in data set [1], the “MIC50 MRSA” value was 0.46(2) mM.
On to `O=C(NCS(=O)(=O)O)Nc1ccc(C(F)(F)F)cc1` [SSA 3], for which the “Concentration of SSA in muscle” value in data set [2] (4.0 h post i.v. dosing) was “BLQ”. For the same compound, the concentration at 0.5 h in data set [2] (setting [6]) amounted to 1230 nM; in data set [2] (setting [8]) it was 86 nM; in data set [2] (setting [9]), 86 nM. In addition, the concentration at 4 h worked out at 206 nM in data set [2] (setting [7]) and 18 nM in data set [2] (lung, 4.0 h post i.v. dosing, read-out: Concentration of SSA in lung). For the same compound, the “MIC50 MRSA” value in data set [1] is reported as 0.35(1) mM.
Consider `O=C(O)CNC(=O)Nc1ccc(C(F)(F)F)cc1` [SSA 4], for which, in data set [1], the “MIC50 MRSA” value is 1.14(6) mM.
As for `O=C(NCS(=O)(=O)O)Nc1ccccc1-c1nc2ccccc2s1` [SSA 5], the “Concentration of SSA in lung” value in data set [2] (4.0 h post i.v. dosing) is “BLQ”. For the same compound, the “Concentration of SSA in muscle” value in data set [2] (4.0 h post i.v. dosing) is “BLQ”. The concentration at 0.5 h was 2200 nM in data set [2] (setting [6]), 153 nM in data set [2] (setting [8]) and 172 nM in data set [2] (setting [9]). In data set [2] (setting [7]), the concentration at 4 h was found to be 429 nM. The “MIC50 MRSA” value in data set [1] was 0.99(5) mM. The CMC in data set [3] was 9.5 (ref. [38]) mM.
Regarding `Cc1ccc2nc(-c3ccc(NC(=O)NCS(=O)(=O)O)cc3)sc2c1` [SSA 6], the “MIC50 MRSA” value in data set [1] was 0.93(4) mM. Also, the CMC in data set [3] is 0.5 (ref. [38]) mM.
In the case of `Cc1ccc2nc(NC(=O)NCS(=O)(=O)O)sc2c1` [SSA 7], in data set [4], the “interaction of the anionic component of SSA with phospholipid nanodiscs” value is “not to interact with any great significance to any of the phospholipid nanodiscs tested”.
Regarding `O=C(NCS(=O)(=O)O)Nc1ccc(-c2nc3ccccc3s2)cc1` [SSA 8], the CMC in data set [5] (unit printed in Figs S37-S40, not in Table 3, listed as 8) came to 5.2 mM; in data set [5] (unit printed in Figs S37-S40, not in Table 3, listed as compound 8), 5.16 mM.
Take `Cc1ccc2nc(-c3ccc(NC(=O)NCCC(=O)O)cc3)sc2c1` [SSA 9]: the CMC came out at 1.9 mM in data set [5] (unit printed in Figs S37-S40, not in Table 3, listed as 9) and 1.92 mM in data set [5] (unit printed in Figs S37-S40, not in Table 3, listed as compound 9).
As to `Cc1ccc2nc(-c3ccc(NC(=O)NCCCS(=O)(=O)O)cc3)sc2c1` [SSA 10], the CMC in data set [5] (unit printed in Figs S37-S40, not in Table 3, listed as 10) is reported as 14.8 mM; in data set [5] (unit printed in Figs S37-S40, not in Table 3, listed as compound 10) it was 14.77 mM.
As for `Cc1ccc2nc(-c3ccc(NC(=O)NCC(=O)O)cc3)sc2c1` [SSA 11], the CMC in data set [5] (unit printed in Figs S37-S40, not in Table 3, listed as 11) turned out to be 3.0 mM; in data set [5] (unit printed in Figs S37-S40, not in Table 3, listed as compound 11), 3.03 mM.
In data set [5] (unit given in Figs S37-S40, not in Table 3), `Cc1ccc2nc(-c3ccc(NC(=S)NCS(=O)(=O)O)cc3)sc2c1` [SSA 12] displayed a CMC of 4.6 mM. The “interaction of the anionic component of SSA with phospholipid nanodiscs” value in data set [4] is recorded as “greatest binding affinity for all three nanodiscs of the SSAs tested”.
